Test results taken from patent publication US10800766B2, “Quinoline alkenes as cytoprotective agents” (priority 2015, dated 2020).

Key:
CSM14.1 neuronal cells = test: Cell survival assay (thapsigargin-induced cell death, CELLTITER-GLO luminescence); assay type: cell-based; conditions: CSM14.1 cells, compound 2 hrs before about 15 μM thapsigargin, overnight (about 16 to 24 hrs), cell viability
Method: CSM14.1 neuronal cells were maintained in Complete Medium at 32° C.; wherein the Complete Medium contained Dulbecco's modified eagle medium (DMEM) with 10% fetal bovine serum (FSB), 1% L-glutamine, 100 IU/mL penicillin, and 100 μg/mL streptomycin. The cells were recovered from cultures by trypsinization and then seeded in 384 well plates (Greiner #781098) at a concentration of 1,000 cells/well in 20 μL of DMEM Assay Medium, wherein the DMEM Assay Medium contained 2% FBS, 100 IU/mL penicillin, and 100 μg/mL streptomycin. Seeding was performed using a MultiDrop Combi reagent broadcaster. The plates were incubated overnight at 32° C. A test compound was prepared by 2-fold serial dilution in 100% DMSO using a BIOMEK® 2000 liquid handler (Beckman Coulter). A dose-response curve containing 10 concentrations of the test compound was obtained. Using a BIOMEK® FX liquid handler (Beckman Coulter), 2.5 μL of the test compound was transferred from the 100% DMSO serial dilution plate to an intermediate plate containing 47.5 μL of DMEM Assay Medium containing 2% FBS, 100 IU/mL penicillin, and 100 μg/mL streptomycin and mixed. To reduce or eliminate the interference from the compound's precipitation, 6 μL of the diluted compound was immediately transferred to the assay plate to achieve a high compound concentration of 100 μM in 99% DMEM Assay Medium and 1% DMSO. After the assay plates were incubated for 2 hrs, 4 μL of 112.5 μM thapsigargin (TG) (DMSO stock diluted into Assay TC Medium) was dispensed into each testing well with a MultiDrop Combi reagent broadcaster for a final concentration of about 15 μM TG. The tissue culture media (4 μL) containing vehicle only was transferred manually to each control cell using a 16 channel electronic pipette. After the plates were incubated overnight (about 16 to 24 hrs), CELLTITER-GLO® (Promega) (16 μL) was added to all wells and luminescence was measured. High luminescence indicates cell survival. The biological results are summarized in Table 1 where A represents a cell viability EC50 less than 1 μM and B represents a value greater than 1 μM and less than 10 μM.

[1] = test system: Human embryonic kidney (HEK293) cells; Mouse neuroblastoma (N2a) cells; test: Cell rescue assay: protection against thapsigargin (TG)-induced cell-death (ALAMARBLUE); assay type: cell-based; conditions: compound 20 μM, 2 hrs before thapsigargin (15 μM for HEK293 cells, 1 μM for N2a cells), 24 hrs; viability as % RFU compared to control
Method: Protection against Thapsigargin (TG)-induced Cell-death. Human embryonic kidney (HEK293) cells were grown in Dulbecco's Modified Eagle's Medium (DMEM) with 10% FBS and 1% antibiotic antimycotic solution (ABAM). Mouse neuroblastoma (N2a) cells were grown in 1:1 DMEM:OPTI-MEM® with 5% FBS and 1% ABAM. All cells were grown in 10% CO2 in a humidified environment of the incubator. Cells grown in 96-well plates were exposed to a test compound (20 μM) for 2 hrs before addition of thapsigargin (15 μM for HEK293 cells and 1 μM for N2a cells) to induce ER stress. After incubation in cell-culture incubator for 24 hrs, ALAMARBLUE® regent (10% v/v) was added to the wells. Fluorescence reading was taken 2 hrs after the addition of the ALAMARBLUE® regent. Cell-viability was calculated as a percentage of relative fluorescence unit (RFU) compared to control. […] The biological results are summarized in Table 2, where each compound was tested at 20 μM and where A represents a viability greater than 50%, B represents a viability greater than 10% and less than 50%, C represents a value below 10%.

Human SH-SY5Y cells = test: Cell rescue assay: protection against β-amyloid-induced cell toxicity; assay type: cell-based; conditions: 7.5 uM compound, AB1-42 at 10 uM, 4 days, OD at 490 nm
Method: Protection against β-amyloid-induced cell toxicity. Chonpathompikunlert et al. Eu. J. Pharmacol. 2011, 650, 544-549. Human SH-SY5Y cells are suspended in media containing 2% FBS and 2× Gentamicin. Transfer 100 ul/well culture to 96-well plate (20,000 cells/well; passage #5) and incubate overnight. Prepare compound samples at 30 uM. Add 50 ul of the samples to the cells [[…]] and incubate 3 hours. Make stock of 40 uM AB1-42 peptide in assay media. Transfer 50 ul/well to cells/compounds in assay plate. The final assay volume is 200 ul/well, containing 2% FBS, 2× Gentamicin, 7.5 uM compound and AB1-42 at 10 uM. Incubate for 4 days then add 20 ul of Promega Substrate Cell Titer 96 Aqueous One Solution Reagent to each well. Incubate 37° C. and read OD at 490 nm. The results are summarized in Table 3, where A represents a value greater than 50% cell rescue, B represents a value greater than 10% and less than 50% cell rescue, and C represents a value greater than 1% and less than 10% cell rescue.

[2] = molecular target: T1, SERCA (microsomal preparations from HEK 293 cells) (Homo sapiens, UniProt P16615); test: Ca-ATPase assay (NADH-linked, enzyme-coupled ATPase assay); assay type: biochemical; conditions: ATP hydrolysis rate over a range of calcium concentrations, Vmax by fit to Hill function, relative to controls
T1 construct: endogenous in cells; host or cells: HEK 293 cells (microsomal preparation)
T1 sequence (P16615 whole entry): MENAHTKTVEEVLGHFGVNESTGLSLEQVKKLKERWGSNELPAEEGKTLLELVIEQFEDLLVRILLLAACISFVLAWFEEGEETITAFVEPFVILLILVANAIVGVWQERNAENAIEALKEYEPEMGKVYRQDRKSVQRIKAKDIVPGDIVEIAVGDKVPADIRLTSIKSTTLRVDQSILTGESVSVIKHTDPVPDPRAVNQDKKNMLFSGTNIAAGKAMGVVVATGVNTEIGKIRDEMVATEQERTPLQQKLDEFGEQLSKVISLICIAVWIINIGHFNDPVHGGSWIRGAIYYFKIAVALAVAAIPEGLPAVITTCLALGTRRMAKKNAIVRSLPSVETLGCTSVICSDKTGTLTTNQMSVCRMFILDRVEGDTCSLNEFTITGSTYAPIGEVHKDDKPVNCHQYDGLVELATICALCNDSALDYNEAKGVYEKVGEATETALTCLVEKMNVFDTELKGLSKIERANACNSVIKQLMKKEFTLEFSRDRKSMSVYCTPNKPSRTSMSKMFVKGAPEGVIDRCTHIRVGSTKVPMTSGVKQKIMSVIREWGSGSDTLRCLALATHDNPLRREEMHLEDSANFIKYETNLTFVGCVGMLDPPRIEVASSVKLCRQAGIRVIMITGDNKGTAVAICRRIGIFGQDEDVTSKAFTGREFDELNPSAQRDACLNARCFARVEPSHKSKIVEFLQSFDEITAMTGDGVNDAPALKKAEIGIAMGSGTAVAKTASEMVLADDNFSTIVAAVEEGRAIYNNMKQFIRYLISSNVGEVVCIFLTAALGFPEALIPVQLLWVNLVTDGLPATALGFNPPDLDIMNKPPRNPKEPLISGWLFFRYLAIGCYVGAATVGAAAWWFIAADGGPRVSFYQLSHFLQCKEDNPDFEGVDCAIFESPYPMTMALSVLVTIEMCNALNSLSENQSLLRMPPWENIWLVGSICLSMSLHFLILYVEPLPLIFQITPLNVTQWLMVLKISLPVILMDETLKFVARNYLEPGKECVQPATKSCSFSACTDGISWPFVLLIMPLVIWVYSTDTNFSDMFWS
Method: A Ca-ATPase assay was performed using microsomal preparations from HEK 293 cells at a series of calcium concentrations corresponding to the physiological range, relative to controls. The ATP hydrolysis rate was measured over a range of calcium concentrations in the presence of test compounds using an NADH-linked, enzyme-coupled ATPase assay adapted for 96-well microplates, with Vmax determined by fitting the ATPase calcium-dependence to the Hill function. Each well contained 2 μg or 7 μg of SR vesicles (optimized for skeletal or cardiac SR, respectively), 50 mM MOPS (pH 7.0), 100 mM KCl, 5 mM MgCl2, 1 mM EGTA, 0.2 mM NADH, 1 mM phosphoenol pyruvate, 5 IU pyruvate kinase, 5 IU lactate dehydrogenase, and 3.5 μg/mL A23187 (a calcium ionophore). CaCl2 was added to set free [Ca^2+] to the specific values. The assay was started upon addition of ATP at a final concentration of 5 mM, and read in a SpectraMax Plus microplate spectrophotometer. The results are summarized in Table 4, where A represents an increase in SERCA Vmax greater than 50% and B represents a value greater than 10% and less than 50%.

Ob/ob mice = test: Effect of a SERCA agonist on the level of blood glucose; assay type: in vivo, mouse; conditions: 50 mg/kg i.p. once a day for 5 days, fasting glucose at baseline and 4 days after administration
Method: Ob/ob mice (10 weeks old, n=7) were intraperitoneally (i.p.) injected with 100 μL of a solution containing 0 (vehicle) or 50 mg/kg of a test compound once a day for a total of 5 days. Fasting glucose was measured at baseline and 4 days after the administration of the test compound. Glucose levels were measured in blood samples drawn from the tail vein using a handheld glucose sensor. Compound effects on blood glucose are shown in Table 5 where A represents a 10-20% reduction in blood glucose, B represents a 21-30% reduction in blood glucose, and C represents a greater than 30% reduction in blood glucose levels.

## Cc1ccc2cccc(/C=C/c3ccc(OC(C)C)cc3)c2n1 [A1, (E)-8-(4-Isopropoxystyryl)-2-methylquinoline]
CSM14.1 neuronal cells
  EC50: < 1000 nM
[1]
  Cell Survival %: A (A represents a viability greater than 50%)
Human SH-SY5Y cells
  Cell Survival % (cell rescue): A (A represents a value greater than 50% cell rescue)
[2]
  SERCA Vmax Increase: A (A represents an increase in SERCA Vmax greater than 50%)
Ob/ob mice
  Glucose level reduction: C (C represents a greater than 30% reduction in blood glucose levels)

## Cc1ccc2cccc(/C=C/c3cc(Br)cs3)c2n1 [A2, (E)-8-(2-(4-Bromothiophen-2-yl)vinyl)-2-methylquinoline]
CSM14.1 neuronal cells
  EC50: < 1000 nM
[1]
  Cell Survival %: A (A represents a viability greater than 50%)
Human SH-SY5Y cells
  Cell Survival % (cell rescue): B (B represents a value greater than 10% and less than 50% cell rescue)
[2]
  SERCA Vmax Increase: A (A represents an increase in SERCA Vmax greater than 50%)
Ob/ob mice
  Glucose level reduction: B (B represents a 21-30% reduction in blood glucose)

## Cc1ccc2cccc(/C=C/c3ccc(Br)s3)c2n1 [A3, (E)-8-(2-(5-Bromothiophen-2-yl)vinyl)-2-methylquinoline]
CSM14.1 neuronal cells
  EC50: 1000 to 10000 nM
[1]
  Cell Survival %: B (B represents a viability greater than 10% and less than 50%)
Human SH-SY5Y cells
  Cell Survival % (cell rescue): C (C represents a value greater than 1% and less than 10% cell rescue)
[2]
  SERCA Vmax Increase: A (A represents an increase in SERCA Vmax greater than 50%)
Ob/ob mice
  Glucose level reduction: B (B represents a 21-30% reduction in blood glucose)

## Cc1ccc2cccc(/C=C/c3ccc(Cl)cc3)c2n1 [A4, (E)-8-(4-Chlorostyryl)-2-methylquinoline]
CSM14.1 neuronal cells
  EC50: < 1000 nM
[1]
  Cell Survival %: C (C represents a value below 10%)
Human SH-SY5Y cells
  Cell Survival % (cell rescue): B (B represents a value greater than 10% and less than 50% cell rescue)
[2]
  SERCA Vmax Increase: B (B represents a value greater than 10% and less than 50%)
Ob/ob mice
  Glucose level reduction: A (A represents a 10-20% reduction in blood glucose)

## Cc1ccc2cccc(/C=C/c3cccc(C(F)(F)F)c3)c2n1 [A5, (E)-8-(3-(Trifluoromethyl)styryl)-2-methylquinoline]
CSM14.1 neuronal cells
  EC50: 1000 to 10000 nM
[1]
  Cell Survival %: B (B represents a viability greater than 10% and less than 50%)
Human SH-SY5Y cells
  Cell Survival % (cell rescue): B (B represents a value greater than 10% and less than 50% cell rescue)
[2]
  SERCA Vmax Increase: A (A represents an increase in SERCA Vmax greater than 50%)
Ob/ob mice
  Glucose level reduction: B (B represents a 21-30% reduction in blood glucose)

## Cc1ccc2cccc(/C=C/c3cccc(F)c3)c2n1 [A6, (E)-8-(3-Fluorostyryl)-2-methylquinoline]
CSM14.1 neuronal cells
  EC50: 1000 to 10000 nM
[1]
  Cell Survival %: B (B represents a viability greater than 10% and less than 50%)
Human SH-SY5Y cells
  Cell Survival % (cell rescue): A (A represents a value greater than 50% cell rescue)
[2]
  SERCA Vmax Increase: B (B represents a value greater than 10% and less than 50%)
Ob/ob mice
  Glucose level reduction: A (A represents a 10-20% reduction in blood glucose)
